In brackets after ≈: the same amount, converted by molar mass.
Key:
Escherichia coli = assay: Action against bacteria, MIC (agar); assay type: cell-based; details: 336 h, agar containing broth, 28° C., 2 weeks
Method: (§1) The nutrient medium is then infected with in each case the test organisms listed in Table C and the infected medium is kept at 28° C. and 60 to 70% relative atmospheric humidity for 2 weeks. […] The compounds according to Preparation Examples 2, 6a, 12a, 9b, 13 and 14 show good actions.

Staphylococcus aureus = assay: Action against bacteria, MIC (agar); assay type: cell-based; details: 336 h, agar containing broth, 28° C., 2 weeks
Method: as §1

Pyricularia oryzae = assay type: in vivo, Pyricularia oryzae (on young rice plants); details: protective, rice plants; evaluation 4 days after inoculation
[1] = test system: fungi: Alternaria tenuis, Aspergillus niger, Aureobasidium pullulans, Chaetomium globosum, Cladosporium cladoporioides, Lentinus tigrinus, Penicillium glaucum …; assay: Minimum inhibitory concentrations (MIC), activity against fungi (agar); assay type: cell-based; details: agar from beer wort and peptone; 28° C., 60 to 70% humidity, 2 weeks; 0.1 mg/l to 5,000 mg/l
Method: Active compounds according to the invention are added in concentrations of 0.1 mg/l to 5,000 mg/l to an agar prepared from beer wort and peptone. After storage at 28° C. and 60 to 70% relative atmospheric humidity for 2 weeks, the MIC is determined. […] Good actions of the listed test organisms are shown, for example, by the compounds according to Preparation Examples 2, 6a, 12a, 9b, 24 and 25: […]

bacteria = assay: Action against bacteria (test organisms of Table C), result in words; assay type: cell-based, Escherichia coli, Staphylococcus aureus; details: 1 to 5,000 ppm; agar containing broth, 28° C., 2 weeks
Method: as §1

Compound: CS(=O)(=O)n1cc(-c2ccccc2)c(=O)n1-c1ccccn1 [Example 24, 1-pyrid-2-yl-2-methylsulphonyl-4-phenyl-pyrazolin-5-one]
- MIC (Escherichia coli): 50 µg/mL (≈ 159 µM)
- MIC (Staphylococcus aureus): 50 µg/mL (≈ 159 µM)

Compound: mixture of 1-pyrid-2-yl-2-acetyl-4-phenyl-pyrazolin-5-one and 1-pyrid-2-yl-4-phenyl-5-acetoxypyrazole [Example 1]
- activity compared with the prior art (Pyricularia oryzae): clearly superior activity compared with the prior art

Compound: CC(=O)n1cc(-c2ccccc2)c(=O)n1-c1ncccn1 [Example 2, 1-Pyrimid-2-yl-2-acetyl-4-phenyl-pyrazol-5-one]
- activity compared with the prior art (Pyricularia oryzae): clearly superior activity compared with the prior art
- action against the listed test organisms (fungi) [1]: Good actions
- MIC (Escherichia coli): 750 µg/mL (≈ 2680 µM)
- MIC (Staphylococcus aureus): 1000 µg/mL (≈ 3570 µM)
- action against bacteria (bacteria): good actions

Compound: O=c1c(-c2ccccc2)cn(S(=O)(=O)c2ccccc2)n1-c1ccccn1 [Example 25]
- action against the listed test organisms (fungi) [1]: Good actions
- MIC (Escherichia coli): 1000 µg/mL (≈ 2650 µM)
- MIC (Staphylococcus aureus): 20 µg/mL (≈ 53 µM)
